Assay results published in patent US6310210A, “Camptothecin derivatives” (Kabushiki Kaisha Yakult Honsha, priority 1997, dated 2001).
≈ marks a conversion by molar mass, not a printed value. Counter-ions that a name gives are not always drawn. One block for each molecule: values may come before it.

Legend:
[1] = Solubility of each hydrochloride in purified water; format: physicochemical
Description: A corresponding camptothecin-21-(2-dimethylamino) ethylamide derivative (100-200 mg) was added with an aqueous 0.1 N HCl solution (1.05 eq.) and dissolved, if necessary, further by adding purified water. The solution was filtered using MILLEX-GV ([…] Filter Unit), and the filtrate was lyophilized to give the desired hydrochloride.
Table 1: Solubility of each hydrochloride in purified water

[2] = system: mouse leukemia L1210; test: Anti-tumor activity: life prolonging effect in mice transplanted intraperitoneally with mouse leukemia L1210 (T/C%); format: in vivo; conditions: for Anti-tumor activity (T/C%): i.p. day 1, 5 and 9; for Anti-tumor activity: fraction in parentheses after T/C% (meaning not given): group of six mice
Description: 5×10^5 cells of mouse leukemia L1210 were transplanted intraperitoneally to a group of six female CDP1 mice (7 weeks old, body weight 17-19 g). A test substance was administered intraperitoneally on day 1, 5 and 9, and its life prolonging effect was observed. In a case of the administration of a test substance as an acid addition salt, it was dissolved in purified water. The total administration amount was 1.56-400 mg/kg. The anti-tumor activity was expressed by the value (T/C%) in which the ratio of the mean survival days of a drug administered group (T) to the mean survival days of a not administered group (C) is multiplied by 100.

[3] = Stability test in water at each pH (phosphate buffer, HPLC); format: physicochemical; conditions: for Amount of the compound in test solution: room temperature (about 26° C.)
Description: 1) Preparation of calibration curve:
1.05 mg of the compound 1 and 1.10 mg of the compound A (Note) were measured, dissolved in acetonitrile 10 ml to give a standard solution. 20 μl of the standard solution was tested by HPLC method (procedure condition 1). The peak area of the compound 1 and the compound A (Note), which is obtained from the chromatograph of the standard solution is measured by an automatic integration method, and the obtained area is plotted against an amount of the compound 1 and the compound A (2.1 μg and 2.2 μg) by 20 μl to prepare a calibration curve.
[HPLC method, procedure condition 1]
Column: Inertsil ODS-3 (5-250), 40 deg.
Mobile phase: 0.01 M potassium dihydrogenphosphate-acetonitrile (3:1)
Detection: UV absorptiometer (254 nm)
About 1 mg (×3) of the compound 1 were measured, dissolved adding a phosphate buffer 10 ml of pH 10.0, 7.0 or 5.4, stirred at room temperature (about 26° C.) to make a test solution. As to each 20 μl of the test solution at the time of dissolution, 3 hr later and 24 hr later, the tests were carried out by the HPLC method (procedure condition 1). The amounts of the compound 1 were measured from the obtained area. The amounts of the compound A in each pH were measured.
The amounts (μg/ml) of the compound 1 and the compound A at the time of dissolution, 3 hr later and 24 hr later in each pH are shown in Table 7.

solubility [1]: ~14 mg/mL (≈ 26.1 mM)
Compound: CCNC(=O)OCc1c([C@@](O)(CC)C(=O)NCCN(C)C)cc2n(c1=O)Cc1c-2nc2ccccc2c1CC [Compound 2, 7-Ethyl-17-ethylcarbamoyloxycamptothecin-21-(2-dimethylamino)ethylamide]

solubility [1]: ~11 mg/mL (≈ 20 mM)
Compound: CCCNC(=O)OCc1c([C@@](O)(CC)C(=O)NCCN(C)C)cc2n(c1=O)Cc1c-2nc2ccccc2c1CC [Compound 3, 7-Ethyl-17-n-propylcarbamoyloxycamptothecin-21-(2-dimethylamino)ethylamide]
Anti-tumor activity (T/C%) ([2]; Table 2, total dose 3.13 mg/kg): 100% | Anti-tumor activity (T/C%) ([2]; Table 2, total dose 6.25 mg/kg): 100% | Anti-tumor activity (T/C%) ([2]; Table 2, total dose 12.5 mg/kg): 139% | Anti-tumor activity (T/C%) ([2]; Table 2, total dose 25 mg/kg): 142% | Anti-tumor activity (T/C%) ([2]; Table 2, total dose 50 mg/kg): 147% | Anti-tumor activity (T/C%) ([2]; Table 2, total dose 100 mg/kg): 147% | Anti-tumor activity (T/C%) ([2]; Table 2, total dose 200 mg/kg): 147%

solubility [1]: ~50 mg/mL (≈ 91 mM)
Compound: CCc1c2c(nc3ccccc13)-c1cc([C@@](O)(CC)C(=O)NCCN(C)C)c(COC(=O)NC(C)C)c(=O)n1C2 [Compound 4, 7-Ethyl-17-iso-propylcarbamoyloxycamptothecin-21-(2-dimethylamino)ethylamide]
Anti-tumor activity (T/C%) ([2]; Table 4, total dose 3.13 mg/kg): 121% | Anti-tumor activity (T/C%) ([2]; Table 4, total dose 6.25 mg/kg): 123% | Anti-tumor activity (T/C%) ([2]; Table 4, total dose 12.5 mg/kg): 121% | Anti-tumor activity (T/C%) ([2]; Table 4, total dose 25 mg/kg): 123% | Anti-tumor activity (T/C%) ([2]; Table 4, total dose 50 mg/kg): 149% | Anti-tumor activity (T/C%) ([2]; Table 4, total dose 100 mg/kg): 205% | Anti-tumor activity: fraction in parentheses after T/C% (meaning not given) ([2]; Table 4, total dose 200 mg/kg): 1/6 | Anti-tumor activity (T/C%) ([2]; Table 4, total dose 200 mg/kg): 323%

solubility [1]: ~10 mg/mL (≈ 17.7 mM)
Compound: CCCCNC(=O)OCc1c([C@@](O)(CC)C(=O)NCCN(C)C)cc2n(c1=O)Cc1c-2nc2ccccc2c1CC [Compound 5, 17-n-Butylcarbamoyloxy-7-ethylcamptothecin-21-(2-dimethylamino)ethylamide]

solubility [1]: ~50 mg/mL (≈ 84.8 mM)
Compound: CCc1c2c(nc3ccccc13)-c1cc([C@@](O)(CC)C(=O)NCCN(C)C)c(COC(=O)NC3CCCCC3)c(=O)n1C2 [Compound 6, 7-Ethyl-17-c-hexylcarbamoyloxycamptothecin-21-(2-dimethylamino)ethylamide]

solubility [1]: ~15 mg/mL (≈ 25.7 mM)
Compound: CCc1c2c(nc3ccccc13)-c1cc([C@@](O)(CC)C(=O)NCCN(C)C)c(COC(=O)Nc3ccccc3)c(=O)n1C2 [Compound 7, 7-Ethyl-17-phenylcarbamoyloxycamptothecin-21-(2-dimethylamino)ethylamide]

solubility [1]: ~11 mg/mL (≈ 18.3 mM)
Compound: CCc1c2c(nc3ccccc13)-c1cc([C@@](O)(CC)C(=O)NCCN(C)C)c(COC(=O)Nc3ccccc3F)c(=O)n1C2 [Compound 8, 7-Ethyl-17-(2-fluorophenylcarbamoyloxy)-camptothecin-21-(2-dimethylamino)ethylamide]

solubility [1]: ~28 mg/mL (≈ 46.5 mM)
Compound: CCc1c2c(nc3ccccc13)-c1cc([C@@](O)(CC)C(=O)NCCN(C)C)c(COC(=O)Nc3cccc(F)c3)c(=O)n1C2 [Compound 9, 7-Ethyl-17-(3-fluorophenylcarbamoyloxy)-camptothecin-21-(2-dimethylamino)ethylamide]

solubility [1]: ~7 mg/mL (≈ 11.6 mM)
Compound: CCc1c2c(nc3ccccc13)-c1cc([C@@](O)(CC)C(=O)NCCN(C)C)c(COC(=O)Nc3ccc(F)cc3)c(=O)n1C2 [Compound 10, 7-Ethyl-17-(4-fluorophenylcarbamoyloxy)-camptothecin-21-(2-dimethylamino)ethylamide]
Anti-tumor activity (T/C%) ([2]; Table 4, total dose 3.13 mg/kg): 115% | Anti-tumor activity (T/C%) ([2]; Table 4, total dose 6.25 mg/kg): 118% | Anti-tumor activity (T/C%) ([2]; Table 4, total dose 12.5 mg/kg): 123% | Anti-tumor activity (T/C%) ([2]; Table 4, total dose 25 mg/kg): 136% | Anti-tumor activity (T/C%) ([2]; Table 4, total dose 50 mg/kg): 174% | Anti-tumor activity (T/C%) ([2]; Table 4, total dose 100 mg/kg): 221% | Anti-tumor activity (T/C%) ([2]; Table 4, total dose 200 mg/kg): 310%

solubility [1]: ~5 mg/mL (≈ 7.89 mM)
Compound: CCc1c2c(nc3ccccc13)-c1cc([C@@](O)(CC)C(=O)NCCN(C)C)c(COC(=O)Nc3cccc4ccccc34)c(=O)n1C2 [Compound 11, 7-Ethyl-17-(1-naphthylcarbamoyloxy)-camptothecin-21-(2-dimethylamino)ethylamide]

solubility [1]: ~53 mg/mL (≈ 94 mM)
Compound: CCc1c2c(nc3ccccc13)-c1cc([C@@](O)(CC)C(=O)NCCN(C)C)c(COC(=O)N(CC)CC)c(=O)n1C2 [Compound 15, 17-Diethylcarbamoyloxy-7-ethylcamptothecin-21-(2-dimethylamino)ethylamide]

solubility [1]: ≥ 33 mg/mL
Compound: CCc1c2c(nc3ccccc13)-c1cc([C@@](O)(CC)C(=O)NCCN(C)C)c(COC(=O)N3CCN(CC(=O)NC(C)C)CC3)c(=O)n1C2 [Compound 16, 7-Ethyl-17-(4-isopropylaminocarbonylmethyl-piperazino)-carbamoyloxy-camptothecin-21-(2-dimethylamino)ethylamide]

solubility [1]: ≥ 50 mg/mL
Compound: CCc1c2c(nc3ccccc13)-c1cc([C@@](O)(CC)C(=O)NCCN(C)C)c(COC(=O)OC)c(=O)n1C2 [Compound 18, 7-Ethyl-17-methoxycarbonyloxycamptothecin-21-(2-dimethylamino)ethylamide]

solubility [1]: ≥ 52 mg/mL
Compound: CCOC(=O)OCc1c([C@@](O)(CC)C(=O)NCCN(C)C)cc2n(c1=O)Cc1c-2nc2ccccc2c1CC [Compound 19, 7-Ethyl-17-ethoxycarbonyloxycamptothecin-21-(2-dimethylamino)ethylamide]

solubility [1]: ≥ 52 mg/mL
Compound: CCCOC(=O)OCc1c([C@@](O)(CC)C(=O)NCCN(C)C)cc2n(c1=O)Cc1c-2nc2ccccc2c1CC [Compound 20, 7-Ethyl-17-n-propoxycarbonyloxycamptothecin-21-(2-dimethylamino)ethylamide]

Compound: CCCCOC(=O)OCc1c([C@@](O)(CC)C(=O)NCCN(C)C)cc2n(c1=O)Cc1c-2nc2ccccc2c1CC [Compound 21, 17-n-Butoxycarbonyloxy-7-ethyl-camptothecin-21-(2l-dimethylamino)ethylamide]
solubility [1]: ≥ 54 mg/mL

Compound: CCc1c2c(nc3ccccc13)-c1cc([C@@](O)(CC)C(=O)NCCN(C)C)c(COC(C)=O)c(=O)n1C2 [Compound A, 7-Ethyl-17-acetoxycamptothecin-21-(2-dimethylamino)ethylamide hydrochloride, reference compound]
Amount of the compound in test solution ([3]; pH 5.4, 3 hr later): 126 µg/mL | Amount of the compound in test solution ([3]; pH 5.4, 24 hr later): 124 µg/mL | Amount of the compound in test solution ([3]; pH 5.4, at the time of dissolution): 126 µg/mL | Amount of the compound in test solution ([3]; pH 7.0, 3 hr later): 110 µg/mL | Amount of the compound in test solution ([3]; pH 7.0, 24 hr later): 107 µg/mL | Amount of the compound in test solution ([3]; pH 7.0, at the time of dissolution): 110 µg/mL | Amount of the compound in test solution ([3]; pH 10.0, 3 hr later): 79 µg/mL | Amount of the compound in test solution ([3]; pH 10.0, 24 hr later): 16 µg/mL | Amount of the compound in test solution ([3]; pH 10.0, at the time of dissolution): 102 µg/mL | degraded at 24 h ([3]; phosphate buffer, pH 10.0, after 24 hr, read-out: hydrolyzed in the aqueous solution): 84%

Compound: CCc1c2c(nc3ccccc13)-c1cc(C(O)(CC)C(=O)[O-])c(CO)c(=O)n1C2.[Na+] (stereo not drawn) [Reference Compound, 7-ethylcamptothecin sodium salt, reference compound]
Anti-tumor activity (T/C%) ([2]; Table 2, total dose 3.13 mg/kg): 129% | Anti-tumor activity (T/C%) ([2]; Table 2, total dose 6.25 mg/kg): 142% | Anti-tumor activity (T/C%) ([2]; Table 2, total dose 12.5 mg/kg): 153% | Anti-tumor activity (T/C%) ([2]; Table 2, total dose 25 mg/kg): 211% | Anti-tumor activity (T/C%) ([2]; Table 2, total dose 50 mg/kg): 266% | Anti-tumor activity: fraction in parentheses after T/C% (meaning not given) ([2]; Table 2, total dose 100 mg/kg): 2/6 | Anti-tumor activity (T/C%) ([2]; Table 2, total dose 100 mg/kg): 339% | Anti-tumor activity: fraction in parentheses after T/C% (meaning not given) ([2]; Table 2, total dose 200 mg/kg): 1/6 | Anti-tumor activity (T/C%) ([2]; Table 2, total dose 200 mg/kg): 303% | Anti-tumor activity (T/C%) ([2]; Table 4, total dose 3.13 mg/kg): 126% | Anti-tumor activity (T/C%) ([2]; Table 4, total dose 6.25 mg/kg): 146% | Anti-tumor activity (T/C%) ([2]; Table 4, total dose 12.5 mg/kg): 151% | Anti-tumor activity (T/C%) ([2]; Table 4, total dose 25 mg/kg): 215% | Anti-tumor activity (T/C%) ([2]; Table 4, total dose 50 mg/kg): 249% | Anti-tumor activity: fraction in parentheses after T/C% (meaning not given) ([2]; Table 4, total dose 100 mg/kg): 4/6 | Anti-tumor activity (T/C%) ([2]; Table 4, total dose 100 mg/kg): 513% | Anti-tumor activity: fraction in parentheses after T/C% (meaning not given) ([2]; Table 4, total dose 200 mg/kg): 1/6 | Anti-tumor activity (T/C%) ([2]; Table 4, total dose 200 mg/kg): 362%
